Experimental data reported in ChEMBL document CHEMBL3779781, “New direct inhibitors of InhA with antimycobacterial activity based on a tetrahydropyran scaffold” (Eur J Med Chem, 2016).

Key:
[1] = system: Mycobacterium tuberculosis; assay: Antimycobacterial activity against isoniazid resistant Mycobacterium tuberculosis H37Rv clinical isolate 5 harboring katG S315T mutant; type: functional, H37Rv isolate 5
[2] = system: Mycobacterium tuberculosis; assay: Ratio of MIC for isoniazid resistant Mycobacterium tuberculosis H37Rv clinical isolate 1 harboring katG S315T mutant to MIC for Mycobacterium tuberculosis H37Rv; type: functional
[3] = system: Mycobacterium tuberculosis; assay: Antimycobacterial activity against isoniazid resistant Mycobacterium tuberculosis H37Rv clinical isolate 7 harboring katG S315T mutant; type: functional, H37Rv isolate 7
[4] = system: Mycobacterium tuberculosis; assay: Ratio of MIC for isoniazid resistant Mycobacterium tuberculosis H37Rv clinical isolate 2 harboring InhA promoter C-15T mutant to MIC for Mycobacterium tuberculosis H37Rv; type: functional
[5] = system: Mycobacterium tuberculosis; assay: Antimycobacterial activity against isoniazid resistant Mycobacterium tuberculosis H37Rv clinical isolate 2 harboring InhA promoter C-15T mutant; type: functional, H37Rv isolate 2
[6] = system: Mycobacterium tuberculosis; assay: Antimycobacterial activity against isoniazid resistant Mycobacterium tuberculosis H37Rv clinical isolate 6 harboring InhA promoter C-15T mutant; type: functional, H37Rv isolate 6
[7] = system: Mycobacterium tuberculosis; assay: Ratio of MIC for isoniazid resistant Mycobacterium tuberculosis H37Rv clinical isolate 6 harboring InhA promoter C-15T mutant to MIC for Mycobacterium tuberculosis H37Rv; type: functional
[8] = system: Mycobacterium tuberculosis; assay: Antimycobacterial activity against isoniazid resistant Mycobacterium tuberculosis H37Rv clinical isolate 1 harboring katG S315T mutant; type: functional, H37Rv isolate 1
[9] = system: Mycobacterium tuberculosis; assay: Ratio of MIC for isoniazid resistant Mycobacterium tuberculosis H37Rv clinical isolate 4 harboring katG S315T mutant to MIC for Mycobacterium tuberculosis H37Rv; type: functional
[10] = system: Mycobacterium tuberculosis; assay: Ratio of MIC for isoniazid resistant Mycobacterium tuberculosis H37Rv clinical isolate 7 harboring katG S315T mutant to MIC for Mycobacterium tuberculosis H37Rv; type: functional
[11] = system: Mycobacterium tuberculosis; assay: Antimycobacterial activity against isoniazid resistant Mycobacterium tuberculosis H37Rv clinical isolate 4 harboring katG S315T mutant; type: functional, H37Rv isolate 4
[12] = system: Mycobacterium tuberculosis; assay: Antimycobacterial activity against isoniazid resistant Mycobacterium tuberculosis H37Rv clinical isolate 3 harboring InhA promoter C-15T mutant; type: functional, H37Rv isolate 3
[13] = system: Mycobacterium tuberculosis; assay: Ratio of MIC for isoniazid resistant Mycobacterium tuberculosis H37Rv clinical isolate 5 harboring katG S315T mutant to MIC for Mycobacterium tuberculosis H37Rv; type: functional
[14] = system: Mycobacterium tuberculosis; assay: Ratio of MIC for isoniazid resistant Mycobacterium tuberculosis H37Rv clinical isolate 3 harboring InhA promoter C-15T mutant to MIC for Mycobacterium tuberculosis H37Rv; type: functional

SMILES	MIC [1]	Ratio [2]	MIC [3]	Ratio [4]	MIC [5]	MIC [6]	Ratio [7]	MIC [8]	Ratio [9]	Ratio [10]	MIC [11]	MIC [12]	Ratio [13]	Ratio [14]
Cc1cc(C)n(Cc2ccc(C(=O)NCC3(c4nc(-c5ccccc5)cs4)CCOCC3)cc2)n1	62.5 µM	2	15.6 µM	8	62.5 µM	62.5 µM	8	15.6 µM	1	2	7.8 µM	62.5 µM	8	8
NNC(=O)c1ccncc1 [ISONIAZID]	12.5 µg/mL	100	200 µg/mL	6.25	3.1 µg/mL	1.56 µg/mL	3.1	50 µg/mL	50	400	25 µg/mL	1.56 µg/mL	25	3.1
